Broadly, the IC50 is the concentration needed to halve the response being measured. The inhibition is the share of the control response that was lost under treatment.

Here are results for 28 molecules from patent publication US7473790B2 (Pfizer Inc., priority 2003, dated 2009).

In this experiment the target is T1, HCV polymerase (Hepatitis C virus genotype 1b, UniProt P26663).
T1 construct: 2.5 pmoles (0.15 μg) HCV polymerase protein in a final volume of 75 μL
Put plainly: HCV polymerase primer/template-directed transcription assay (32P-GTP incorporation, filter binding). It is filed as biochemical. Conditions: for IC50: recombinant HCV polymerase, 30 minutes at 30° C., concentration giving 50% inhibition of polymerase-directed transcription, read-out: IC50. In outline: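 IC50s come from triplicate cpm, refit with an enzyme-concentration (30 nM) correction when under 200 nM. Reactions ran 30 min at 30° C in Tris pH 7.2 with MgCl2, 1 μM GTP spiked with α-32P-GTP, biotin-dG12 primer and poly(rC)300 template, with 1% DMSO. Incorporated label was collected on DE filtermats and counted.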

T1 sequence (P26663 2420-3010): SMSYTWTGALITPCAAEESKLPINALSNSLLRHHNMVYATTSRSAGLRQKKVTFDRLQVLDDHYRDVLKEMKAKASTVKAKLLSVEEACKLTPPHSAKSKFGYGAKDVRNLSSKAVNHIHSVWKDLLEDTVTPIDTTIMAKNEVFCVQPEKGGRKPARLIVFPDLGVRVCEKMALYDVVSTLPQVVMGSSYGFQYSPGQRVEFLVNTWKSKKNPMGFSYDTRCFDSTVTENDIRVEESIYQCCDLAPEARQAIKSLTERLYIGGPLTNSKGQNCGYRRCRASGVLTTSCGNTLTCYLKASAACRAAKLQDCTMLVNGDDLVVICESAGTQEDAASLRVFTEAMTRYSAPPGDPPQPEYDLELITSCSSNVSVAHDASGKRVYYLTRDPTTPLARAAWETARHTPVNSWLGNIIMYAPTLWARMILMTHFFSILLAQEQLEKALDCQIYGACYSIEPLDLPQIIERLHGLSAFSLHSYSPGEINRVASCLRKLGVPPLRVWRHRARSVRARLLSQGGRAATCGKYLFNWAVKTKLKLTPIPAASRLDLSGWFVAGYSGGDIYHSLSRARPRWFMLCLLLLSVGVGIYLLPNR

Consider `CCc1ccc(OCCOC)c(CCC2(C3CCCC3)CC(O)=C(Cc3nc4ncc(C)cn4n3)C(=O)O2)c1` (stereo not shown) [A(179), 6-Cyclopentyl-6-{2-[5-ethyl-2-(2-methoxy-ethoxy)-phenyl]-ethyl}-4-hydroxy-3-(6-methyl-[1,2,4]triazolo[1,5-a]pyrimidin-2-ylmethyl)-5,6-dihydro-pyran-2-one], for which the IC50 turned out to be 0.005 µM.

For `CCc1ccc(O)c(CCC2(C3CCCC3)CC(O)=C(Cc3nc4nc(C)cc(C)n4n3)C(=O)O2)c1` (single isomer, unassigned; enantiomer 2) [A(168), Enantiomer 2 of 6-Cyclopentyl-3-(5,7-dimethyl-[1,2,4]triazolo[1,5-a]pyrimidin-2-ylmethyl)-6-[2-(5-ethyl-2-hydroxy-phenyl)-ethyl]-4-hydroxy-5,6-dihydro-pyran-2-one], the IC50 came out at 0.009 µM.

Turning to `CCc1cc(CCC2(C3CCCC3)CC(O)=C(Cc3nc4ncc(Br)cn4n3)C(=O)O2)ccc1O` (stereo not shown) [A(230), 3-[(6-bromo[1,2,4]triazolo[1,5-a]pyrimidin-2-yl)methyl]-6-cyclopentyl-6-[2-(3-ethyl-4-hydroxyphenyl)ethyl]-4-hydroxy-5,6-dihydro-2H-pyran-2-one], the IC50 amounted to 0.011 µM.

On to `COC(=O)C(C)(C)c1ccc(CCC2(C3CCCC3)CC(=O)CC(=O)O2)cc1` (stereo not shown) [A(33), 2-{4-[2-(2-Cyclopentyl-4,6-dioxo-tetrahydro-pyran-2-yl)-ethyl]-phenyl}-2-methyl-propionic acid methyl ester], for which the IC50 was 5 µM.

Take `CCOC(=O)CC(=O)N[C@H](C)c1ccc(CCC2(C3CCCC3)CC(=O)CC(=O)O2)cc1` (stereo partly shown) [A(39), N-(1-{4-[2-(2-Cyclopentyl-4,6-dioxo-tetrahydro-pyran-2-yl)-ethyl]-phenyl}-ethyl)-malonamic acid ethyl ester]: the inhibition at 50 µM (@ 50 uM compound, given where IC50 was impractical to calculate, read-out: percent inhibition) was 14%.

For the molecule `CC(C)Oc1ccc(CCC2(C3CCCC3)CC(O)=C(Sc3nc4cc(Cl)ccc4n3C(C)C)C(=O)O2)cc1Cl` (stereo not shown) [C(25), 6-[2-(3-Chloro-4-isopropoxy-phenyl)-ethyl]-3-(5-chloro-1-isopropyl-1H-benzoimidazol-2-ylsulfanyl)-6-cyclopentyl-4-hydroxy-5,6-dihydro-pyran-2-one], the IC50 turned out to be 0.02 µM.

As to `CCc1ccc(O)c(CCC2(C3CCCC3)CC(O)=C(Cc3nc4ncc(C)cn4n3)C(=O)O2)c1` (single isomer, unassigned; enantiomer 2) [A(175), Enantiomer 2 of 6-Cyclopentyl-6-[2-(5-ethyl-2-hydroxy-phenyl)-ethyl]-4-hydroxy-3-(6-methyl-[1,2,4]triazolo[1,5-a]pyrimidin-2-ylmethyl)-5,6-dihydro-pyran-2-one], the IC50 was determined as 0.009 µM.

As for `Cc1cnc2nc(CC3=C(O)CC(COc4ccc(C(C)(C)C#N)c(F)c4)(C4CCCC4)OC3=O)nn2c1` (stereo not shown) [C(111), 2-{4-[2-Cyclopentyl-4-hydroxy-5-(6-methyl-[1,2,4]triazolo[1,5-a]pyrimidin-2-ylmethyl)-6-oxo-3,6-dihydro-2H-pyran-2-ylmethoxy]-2-fluoro-phenyl}-2-methyl-propionitrile], the half-maximal inhibitory concentration (IC50) was determined as 0.395 µM.

As to `CCc1ccc(O)c(CCC2(C3CCCC3)CC(O)=C(Cc3nc4ncc(C)cn4n3)C(=O)O2)c1` (stereo not shown) [A(173), 6-Cyclopentyl-6-[2-(5-ethyl-2-hydroxy-phenyl)-ethyl]-4-hydroxy-3-(6-methyl-[1,2,4]triazolo[1,5-a]pyrimidin-2-ylmethyl)-5,6-dihydro-pyran-2-one], the IC50 is 0.004 µM.

As for `COc1cc(OC)c(CCC2(C3CCCC3)CC(O)=C(Sc3nc4nc(C)ccn4n3)C(=O)O2)cc1Cl` (stereo not shown) [C(82), 6-[2-(5-chloro-2,4-dimethoxyphenyl)ethyl]-6-cyclopentyl-4-hydroxy-3-[(5-methyl[1,2,4]triazolo[1,5-a]pyrimidin-2-yl)thio]-5,6-dihydro-2H-pyran-2-one], the IC50 is 0.027 µM.

Turning to `COc1ccc(CCC2(C3CCCC3)CC(O)=C(Sc3nnc(-c4ccncc4)o3)C(=O)O2)cc1Cl` (stereo not shown) [C(51), 6-[2-(3-chloro-4-methoxyphenyl)ethyl]-6-cyclopentyl-4-hydroxy-3-[(5-pyridin-4-yl-1,3,4-oxadiazol-2-yl)thio]-5,6-dihydro-2H-pyran-2-one], the IC50 was determined as 0.256 µM.

Regarding `COc1ccc(CCC2(C3CCCC3)CC(O)=C(Cc3nc(C)nn3C)C(=O)O2)cc1Cl` (stereo not shown) [B(53), 6-[2-(Chloro-4-methoxyphenyl)ethyl]-6-cyclopentyl-3-[(1,3-dimethyl-1H-1,2,4-triazol-5-yl)methyl]-4-hydroxy-5,6-dihydro-2H-pyran-2-one], the IC50 worked out at 0.35 µM.

For the molecule `COc1cc(C(C)(C)C#N)c(F)cc1CCC1(C2CCCC2)CC(O)=C(Cc2nc3ncc(C)cn3n2)C(=O)O1` (stereo not shown) [A(261), 2-(4-{2-[2-Cyclopentyl-4-hydroxy-5-(6-methyl-[1,2,4]triazolo[1,5-a]pyrimidin-2-ylmethyl)-6-oxo-3,6-dihydro-2H-pyran-2-yl]-ethyl}-2-fluoro-5-methoxy-phenyl)-2-methyl-propionitrile], the IC50 was determined as 0.004 µM.

For `O=C1CC(=O)OC(CCc2cccc(Cc3nccs3)c2)(C2CCCC2)C1` (stereo not shown) [A(78), 6-Cyclopentyl-6-[2-(3-thiazol-2-ylmethyl-phenyl)-ethyl]-dihydro-pyran-2,4-dione], the IC50 is 21 µM.

As to `CCc1cccc(CCC2(C3CCCC3)CC(O)=C(Cc3nc4nc(C)cc(C)n4n3)C(=O)O2)c1` (single isomer, unassigned) [J(7), 6-Cyclopentyl-3-(5,7-dimethyl-[1,2,4]triazolo[1,5-a]pyrimidin-2-ylmethyl)-6-[2-(3-ethyl-phenyl)-ethyl]-4-hydroxy-5,6-dihydro-pyran-2-one], the IC50 was 0.01 µM.

`Cc1cnc2nc(CC3=C(O)CC(CCc4ccc(C(C)C#N)c(F)c4)(C4CCCC4)OC3=O)nn2c1` (stereo not shown) [A(240), 2-(4-{2-[2-Cyclopentyl-4-hydroxy-5-(6-methyl-[1,2,4]triazolo[1,5-a]pyrimidin-2-ylmethyl)-6-oxo-3,6-dihydro-2H-pyran-2-yl]-ethyl}-2-fluoro-phenyl)-propionitrile]: the IC50 was 0.009 µM.

Take `CN(c1ccc(CCC2(C3CCCC3)CC(=O)CC(=O)O2)cc1)S(C)(=O)=O` (stereo not shown) [A(88), N-{4-[2-(2-cyclopentyl-4,6-dioxotetrahydro-2H-pyran-2-yl)ethyl]phenyl}-N-methylmethanesulfonamide]: the IC50 turned out to be 2.3 µM.

For `Cc1cc(CCC2(C3CCCC3)CC(=O)CC(=O)O2)ccc1OC(C)C` (stereo not shown) [A(04), 6-Cyclopentyl-6-[2-(4-isopropoxy-3-methyl-phenyl)-ethyl]-dihydro-pyran-2,4-dione], the IC50 is 5.6 µM.

`Cc1cc(C)n2nc(CC3=C(O)CC(CCc4ccc(OC(C)C)c(C)c4)(C4CCCC4)OC3=O)nc2n1` (stereo not shown) [B(11), 6-Cyclopentyl-3-(5,7-dimethyl-[1,2,4]triazolo[1,5]pyrimidin-2-ylmethyl)-4-hydroxy-6-[2-(4-isopropoxy-3-methyl-phenyl)-ethyl]-5,6-dihydro-pyran-2-one]: the IC50 came out at 0.019 µM.

Regarding `COc1cc(OC)c(CCC2(C3CCCC3)CC(O)=C(Sc3nnc(CN(C)C)n3C)C(=O)O2)cc1Cl` (stereo not shown) [C(83)], the IC50 turned out to be 0.04 µM.

As to `CCc1cc(CCC2(C3CCCC3)CC(O)=C(Cc3nc4ncccn4n3)C(=O)O2)c(OC)cc1O` (stereo not shown) [A(207), 6-cyclopentyl-6-[2-(5-ethyl-4-hydroxy-2-methoxyphenyl)ethyl]-4-hydroxy-3-([1,2,4]triazolo[1,5-a]pyrimidin-2-ylmethyl)-5,6-dihydro-2H-pyran-2-one], the 50% inhibitory concentration (IC50) turned out to be 0.004 µM.

As to `CCc1cc(CCC2(C3CCCC3)CC(O)=C(Cc3nc4nc(C)cc(C)n4n3)C(=O)O2)ccc1OC(C)C` (stereo not shown) [B(102), 6-Cyclopentyl-3-(5,7-dimethyl-[1,2,4]triazolo[1,5-a]pyrimidin-2-ylmethyl)-6-[2-(3-ethyl-4-isopropoxy-phenyl)-ethyl]-4-hydroxy-5,6-dihydro-pyran-2-one], the IC50 is 0.5 µM.

Turning to `N#CCC(=O)c1ccc(CCC2(C3CCCC3)CC(=O)CC(=O)O2)cc1` (stereo not shown) [A(75), 3-{4-[2-(2-Cyclopentyl-4,6-dioxo-tetrahydro-pyran-2-yl)-ethyl]-phenyl}-3-oxo-propionitrile], the IC50 came to 7.1 µM.

On to `COc1ccc(CCC2(C3CCCC3)CC(OCc3cccnc3)=CC(=O)O2)cc1Cl` (stereo not shown) [G(1), 6-[2-(3-chloro-4-methoxyphenyl)ethyl]-6-cyclopentyl-4-(pyridin-3-ylmethoxy)-5,6-dihydro-2H-pyran-2-one], for which the inhibition at 20 µM (@ 20 uM compound, given where IC50 was impractical to calculate, read-out: percent inhibition) was 16%.

For `COc1cc(OC)c(CCC2(C3CCCC3)CC(O)=C(Sc3nc4cc(Cl)ccc4n3C)C(=O)O2)cc1Cl` (stereo not shown) [C(63), 6-[2-(5-chloro-2,4-dimethoxyphenyl)ethyl]-3-[(5-chloro-1-methyl-1H-benzimidazol-2-yl)thio]-6-cyclopentyl-4-hydroxy-5,6-dihydro-2H-pyran-2-one], the IC50 amounted to 0.008 µM.

As for `COc1cc(OC)c(CCC2(C3CCCC3)CC(O)=C(Sc3nnc(C)n3C)C(=O)O2)cc1Cl` (stereo not shown) [C(88), 6-[2-(5-chloro-2,4-dimethoxyphenyl)ethyl]-6-cyclopentyl-3-[(4,5-dimethyl-4H-1,2,4-triazol-3-yl)thio]-4-hydroxy-5,6-dihydro-2H-pyran-2-one], the IC50 came to 0.022 µM.

Turning to `COc1ccc(CCC2(C3CCCC3)CC(O)=C(Sc3nc4ncnc(O)c4[nH]3)C(=O)O2)cc1Cl` (stereo not shown) [C(91), 3 6-[2-(3-chlor-4-methoxyphenyl)ethyl]-6-cyclopentyl-4-hydroxy-3-[(6-hydroxy-7H-purin-8-yl)thio]-5,6-dihydro-2H-pyran-2-one], the IC50 was 0.04 µM.

For `CCc1ccc(O)c(CCC2(C3CCCC3)CC(O)=C(Cc3nc4ncc(C)cn4n3)C(=O)O2)c1` (single isomer, unassigned; enantiomer 1) [A(174), Enantiomer 1 of 6-Cyclopentyl-6-[2-(5-ethyl-2-hydroxy-phenyl)-ethyl]-4-hydroxy-3-(6-methyl-[1,2,4]triazolo[1,5-a]pyrimidin-2-ylmethyl)-5,6-dihydro-pyran-2-one], the IC50 was found to be 0.006 µM.
